The numbers were not newly measured in patent US20230270735A1, “TOPICAL FORMULATION” (INCANTHERA (R&D) LTD, priority 2020, published 2023), which cites them from elsewhere.

Each structure is given as a SMILES string. Like-named read-outs stand apart in the source and are kept apart here.

The target in one data set is PARP-1 (Homo sapiens, UniProt P09874). As to conditions: at a concentration of 50 μmol L^−1, in vitro.
The subject of another data set is actinic keratoses (AK). The conditions noted are these: 4 months.
Test in data set [1]: not given
This is another data set of the same source.

PARP-1, sequence (P09874 whole entry, species assumed): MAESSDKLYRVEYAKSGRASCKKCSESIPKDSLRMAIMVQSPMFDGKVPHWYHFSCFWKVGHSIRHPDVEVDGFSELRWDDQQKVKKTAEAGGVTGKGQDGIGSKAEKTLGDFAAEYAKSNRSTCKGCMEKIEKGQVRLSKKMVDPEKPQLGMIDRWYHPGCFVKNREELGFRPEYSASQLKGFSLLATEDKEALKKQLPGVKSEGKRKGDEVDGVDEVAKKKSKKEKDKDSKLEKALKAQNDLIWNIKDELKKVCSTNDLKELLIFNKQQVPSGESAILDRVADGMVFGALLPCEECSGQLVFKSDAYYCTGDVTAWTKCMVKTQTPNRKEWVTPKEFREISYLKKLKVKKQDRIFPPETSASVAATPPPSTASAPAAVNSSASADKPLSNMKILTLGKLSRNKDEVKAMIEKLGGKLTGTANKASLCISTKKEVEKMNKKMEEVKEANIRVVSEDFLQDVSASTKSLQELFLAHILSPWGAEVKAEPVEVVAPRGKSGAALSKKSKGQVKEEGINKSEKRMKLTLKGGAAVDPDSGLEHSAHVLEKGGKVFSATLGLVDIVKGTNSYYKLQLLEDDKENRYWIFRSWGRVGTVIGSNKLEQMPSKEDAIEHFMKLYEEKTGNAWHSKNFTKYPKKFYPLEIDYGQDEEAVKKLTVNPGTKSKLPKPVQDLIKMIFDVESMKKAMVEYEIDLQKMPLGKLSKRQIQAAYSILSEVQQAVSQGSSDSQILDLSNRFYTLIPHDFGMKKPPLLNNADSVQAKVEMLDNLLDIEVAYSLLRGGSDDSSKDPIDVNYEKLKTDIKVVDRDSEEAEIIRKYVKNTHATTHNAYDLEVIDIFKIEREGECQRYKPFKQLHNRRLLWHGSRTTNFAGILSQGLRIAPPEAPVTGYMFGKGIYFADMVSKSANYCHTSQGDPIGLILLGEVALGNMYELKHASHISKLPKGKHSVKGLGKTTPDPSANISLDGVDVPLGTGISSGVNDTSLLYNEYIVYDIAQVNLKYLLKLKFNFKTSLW

For the compound `NC(=O)c1cccnc1` [NAM, pyridine-3-carboxamide], the “Log P (octanol/water)” value is −0.4. Also, the “inhibition of PARP-1” value at PARP-1 was 60%. In the data set on actinic keratoses (AK) (study 1, oral 500 mg twice daily), the “reduction in AK versus baseline” value is 35%. Further, in the data set with actinic keratoses (AK) (study 2, oral 500 mg once daily), the “reduction in AK versus baseline” value is 29%. Besides, the “range of peak plasma concentrations” value in data set [1] (1 g (~0.5 g/M^2) oral dose, healthy volunteers) is 81 to 158 µmol/L. Also, the peak plasma concentrations in data set [1] (oral 500 mg, extrapolated by Malesu et al. (22) from Stratford data) was about 80 µmol/L. Further, the “rate of new nonmelanoma skin cancers lowered compared with placebo” value in the data set with nonmelanoma skin cancers (oral 500 mg twice a day, 12 months) is recorded as 23%. Further, the “CD4^+ helper T cells and cytotoxic CD8^+ T cells in the tumour microenvironment of melanomas, compared with placebo” value with nonmelanoma skin cancers (oral NAM group) is listed as “significant increase”. For the same compound, in the data set on nonmelanoma skin cancers (oral doses 500-1,000 mg/day), the systemic adverse effects entry is reported as “without significant systemic adverse effects”.
